# Measured values published in article PMC11367503, “Exploring galectin interactions with human milk oligosaccharides and blood group antigens identifies BGA6 as a functional galectin-4 ligand” (The Journal of Biological Chemistry, 2024).
# Several values for one entry are separate records, joined by “and”; a condition that tells them apart may be missing. Equal entries are not always repeated.
# Assays:
# Type in all cases: binding
# human Gal-7 [1] = target: T1, human Gal-7 (Homo sapiens, UniProt P47929); test: Competitive solid-phase assay (SPA), immobilized asialofetuin, Gal-7; details: competitive SPA, immobilized asialofetuin; mean ± S.D., three independent experiments
# T1 construct: made in house; host or cells: Escherichia coli BL21 (DE3)
# T1 sequence (P47929 whole entry): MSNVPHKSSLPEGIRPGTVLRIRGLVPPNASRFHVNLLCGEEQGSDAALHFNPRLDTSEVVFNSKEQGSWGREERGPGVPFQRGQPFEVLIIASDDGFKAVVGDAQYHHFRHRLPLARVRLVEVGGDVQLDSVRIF
# Experimental: (§1) The assay was adapted from Rapoport et al. (2010) ([88]). Briefly, 96-well plates (flat-bottom) were coated with 10 μg/ml asialofetuin (ASF, Sigma-Aldrich) in sodium carbonate buffer (pH 9.6) and incubated overnight at 4 °C. Then, wells were washed three times with 100 μl/well PBS-Tween 0.05% (w/v) and blocked with 100 μl/well PBS-bovine serum albumin (BSA) 2% (1 h, room temperature (RT)) in a humid chamber. Meanwhile, equal volumes of human recombinant Gal-1, -3, -4, -7, and -12 (20–40 μg/ml) in PBS-BSA 0.3% buffer were preincubated with the corresponding inhibitors in serial dilutions (2 h, 37 °C). After washing, galectins were detected using the corresponding antigalectin primary detection antibodies in PBS-BSA 0.3% w/v (1 h at RT). For Gal-1, wells were incubated with an in-house purified 100 ng/ml biotinylated rabbit anti–human Gal-1 polyclonal immunoglobulin G. For Gal-3, -4, and -7, a 1:500 dilution of the corresponding biotinylated anti-human galectin antibodies was used (BAF1154, BAF1227, and MAB13391, respectively, R&D Systems). For Gal-12, a rabbit anti-human Gal-12 polyclonal antibody (Santa Cruz Biotechnology, 1:700) was used. For Gal-1, -3, -4, and -7, plates were rinsed three times before adding 0.33 μg/ml horseradish peroxidase (HRP)-labeled streptavidin (Sigma-Aldrich) for 30 min. For Gal-12, an anti-rabbit secondary antibody conjugate coupled to HRP was incubated for 1 h at RT in PBS-BSA 0.3% w/v. After washing, 100 μl TMB solution (0.1 mg/ml tetramethylbenzidine and 0.06% H2O2 in citrate-phosphate buffer, pH 5.0) was added to plates. The reaction was stopped by adding a 2N H2SO4 solution. Absorbance was determined at 450 nm in a Multiskan MS microplate reader (Thermo Fisher Scientific).
# human Gal-4 [2] = target: T2, human Gal-4 (Homo sapiens, UniProt P56470); test: Competitive solid-phase assay (SPA), immobilized asialofetuin, Gal-4; details: mean ± S.D., three independent experiments
# T2 construct: His6-SUMO (N, cleaved yes); made in house; host or cells: Escherichia coli BL21 (DE3)
# T2 sequence (P56470 1-323): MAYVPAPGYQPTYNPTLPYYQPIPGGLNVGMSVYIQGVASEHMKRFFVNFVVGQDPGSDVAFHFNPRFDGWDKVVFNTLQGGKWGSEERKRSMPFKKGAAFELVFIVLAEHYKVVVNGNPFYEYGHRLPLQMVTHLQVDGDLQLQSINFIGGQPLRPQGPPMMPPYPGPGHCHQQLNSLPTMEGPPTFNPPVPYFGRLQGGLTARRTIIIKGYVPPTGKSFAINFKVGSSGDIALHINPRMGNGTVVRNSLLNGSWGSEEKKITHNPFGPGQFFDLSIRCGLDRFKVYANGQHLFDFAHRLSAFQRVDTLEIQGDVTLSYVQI
# Experimental: as §1
# human Gal-12 = target: T3, human Gal-12 (Homo sapiens, UniProt Q96DT0); test: Competitive solid-phase assay (SPA), immobilized asialofetuin, Gal-12; details: mean ± S.D., three independent experiments
# T3 construct: To obtain full-length human Gal-12, we adapted our previously optimized procedure for murine Gal-12; made in house; host or cells: Escherichia coli Rosetta 2 (DE3)
# T3 sequence (Q96DT0 1-336): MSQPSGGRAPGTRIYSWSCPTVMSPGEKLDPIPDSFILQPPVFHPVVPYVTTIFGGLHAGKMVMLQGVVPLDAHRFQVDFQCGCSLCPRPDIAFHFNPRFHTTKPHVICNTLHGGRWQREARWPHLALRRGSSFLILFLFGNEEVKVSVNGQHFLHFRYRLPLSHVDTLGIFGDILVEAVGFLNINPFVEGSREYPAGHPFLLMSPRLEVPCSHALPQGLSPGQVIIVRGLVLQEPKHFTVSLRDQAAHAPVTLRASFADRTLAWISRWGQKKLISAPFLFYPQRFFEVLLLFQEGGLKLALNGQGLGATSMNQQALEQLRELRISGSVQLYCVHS
# Experimental: as §1
# human Gal-1 = target: T4, human Gal-1 (Homo sapiens, UniProt P09382); test: Competitive solid-phase assay (SPA), immobilized asialofetuin, Gal-1; details: mean ± S.D., three independent experiments
# T4 construct: made in house; host or cells: Escherichia coli BL21 (DE3)
# T4 sequence (P09382 whole entry): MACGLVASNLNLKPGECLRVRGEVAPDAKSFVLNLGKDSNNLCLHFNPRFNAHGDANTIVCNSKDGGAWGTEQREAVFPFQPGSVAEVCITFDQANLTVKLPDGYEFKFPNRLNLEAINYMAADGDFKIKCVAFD
# Experimental: as §1
# human Gal-3 = target: T5, human Gal-3 (Homo sapiens, UniProt P17931); test: Competitive solid-phase assay (SPA), immobilized asialofetuin, Gal-3; details: mean ± S.D., three independent experiments
# T5 construct: made in house; host or cells: Escherichia coli BL21 (DE3)
# T5 sequence (P17931 whole entry): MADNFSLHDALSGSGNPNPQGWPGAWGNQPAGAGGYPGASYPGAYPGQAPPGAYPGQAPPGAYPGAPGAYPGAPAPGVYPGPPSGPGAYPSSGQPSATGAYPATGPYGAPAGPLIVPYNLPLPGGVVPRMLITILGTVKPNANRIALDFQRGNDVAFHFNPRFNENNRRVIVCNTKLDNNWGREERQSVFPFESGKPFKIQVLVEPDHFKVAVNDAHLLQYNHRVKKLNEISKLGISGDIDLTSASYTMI
# Experimental: as §1
# human Gal-4 [3] = target: T2, human Gal-4; test: Isothermal titration calorimetry (ITC), Gal-4; details: Gal-4, PBS, 298 K; for Kd: n fixed to 1.00
# Experimental: (§2) All ITC experiments were performed by using a NanoITC (TA Instruments) under previously optimized conditions ([89]). A typical titration involved 20 injections at 300 s intervals of 2.5 μl aliquots of a 2.5 to 10 mM ligand solution into the sample cell (volume 200 μl) containing the different galectins (30–100 μM). The solutions were prepared by dissolving the glycan ligands in degassed PBS buffer at 298 K. The titration cell was continuously stirred at 300 rev/min. The heats of dilution of the ligands in the buffer were subtracted from the titration data. […] Fitting was performed using the Nano Analyze software (TA Instruments; https://www.tainstruments.com/itcrun-dscrun-nanoanalyze-software/) to determine association constants (Ka) and the enthalpy change (ΔH). No reliable fit of the thermodynamic parameters could be obtained for binding affinities above 80 μM.
# human Gal-7 [4] = target: T1, human Gal-7; test: Isothermal titration calorimetry (ITC), Gal-7; details: Gal-7, PBS, 298 K, n fixed to 1.00
# Experimental: as §2
Compound,IC50 (human Gal-7 [1]),IC50 (human Gal-4 [2]),IC50 (human Gal-12),IC50 (human Gal-1),IC50 (human Gal-3),Kd (human Gal-4 [3]),Kd (human Gal-7 [4]),-TΔS (human Gal-4 [3]),ΔH (human Gal-4 [3])
"OC[C@H]1O[C@@H](O[C@H]2[C@H](O)[C@@H](O)C(O)O[C@@H]2CO)[C@H](O)[C@@H](O)[C@H]1O (mixture of isomers) [Lac, lactose]",3 ± 0.6 mM,23.1 mM,82.1 ± 0.8 mM,,,,,,
"CC1OC(OC2C(OC3C(CO)OC(O)C(O)C3O)OC(CO)C(O)C2O)C(O)C(O)C1O (stereo not drawn) [2’-FL, 2′-fucosyllactose]",8.3 ± 0.5 mM,1.5 ± 0.6 mM,63.5 ± 0.8 mM,1.2 mM and 1.23 mM,4.2 ± 0.3 mM,130 ± 9 µM,,,
"CC(=O)NC1C(O)CC(OCC2OC(OC3C(CO)OC(O)C(O)C3O)C(O)C(O)C2O)(C(=O)O)OC1C(O)C(O)CO (stereo not drawn) [6’-SL, 6′-sialyllactose]",9.5 ± 0.3 mM,,53.3 ± 2 mM,,,,,,
"CC(=O)NC1C(OC2C(O)C(CO)OC(OC3C(O)C(CO)OC(O)C3NC(C)=O)C2OC2OC(C)C(O)C(O)C2O)OC(CO)C(O)C1O (stereo not drawn) [BGA1, blood group A antigen 1]",2.5 ± 0.8 mM,0.2 ± 0.1 mM,30.3 ± 9 mM,6.2 mM and 6.19 mM,1.2 ± 0.5 mM,,,,
"CC(=O)NC1C(OC2C(O)C(CO)OC(OC3C(CO)OC(O)C(O)C3OC3OC(C)C(O)C(O)C3O)C2O)OC(CO)C(OC2OC(CO)C(O)C(O)C2O)C1OC1OC(C)C(O)C(O)C1O (stereo not drawn) [DFH, 3,3-difucosylhexaose (Lewis X hexaose)]",9.2 ± 0.2 mM,13.8 ± 3 mM,5.6 ± 0.8 mM,9.7 mM and 9.73 mM,10.5 ± 0.7 mM,,,,

# The next molecules have a lower IC50 (human Gal-7 [1]) than those just listed; values first:
IC50 (human Gal-7 [1]),IC50 (human Gal-4 [2]),IC50 (human Gal-12),IC50 (human Gal-1),IC50 (human Gal-3),Kd (human Gal-4 [3]),Kd (human Gal-7 [4]),-TΔS (human Gal-4 [3]),ΔH (human Gal-4 [3]),Compound
1.7 ± 0.2 mM,,11.1 ± 1 mM,2.2 ± 0.03 mM,11 ± 0.9 mM,,97 ± 9 µM,,,"CC(=O)NC1C(O)CC(OC2C(O)C(CO)OC(OC3C(CO)OC(O)C(O)C3O)C2O)(C(=O)O)OC1C(O)C(O)CO (stereo not drawn) [3’-SL, 3′-sialyllactose]"
2.2 mM,,9.8 ± 1 mM,2.2 ± 0.04 mM,4.8 ± 0.3 mM,,,,,"CC(=O)NC1C(O)OC(CO)C(OC2OC(CO)C(O)C(OC3(C(=O)O)CC(O)C(NC(C)=O)C(C(O)C(O)CO)O3)C2O)C1O (stereo not drawn) [3’-SLacNAc, 3’-sialyl-N-acetyllactosamine]"
2.2 ± 0.4 mM,0.2 mM and 0.24 mM,25.3 ± 12 mM,6.3 mM and 6.32 mM,1.9 ± 0.4 mM,65 ± 5 µM,103 ± 8 µM,1.1 ± 0.2 kJ/mol,-25 ± 2 kJ/mol,"CC(=O)NC1C(O)OC(CO)C(OC2OC(CO)C(O)C(OC3OC(CO)C(O)C(O)C3NC(C)=O)C2OC2OC(C)C(O)C(O)C2O)C1O (stereo not drawn) [BGA2, blood group A antigen 2]"
